From patent US20100022559A1, “BISOXIMES AS FUNGICIDES” (BAYER CROPSCIENCE AG, priority 2006, published 2010)

Assay: logP determination by HPLC on a reversed-phase column (C 18), EEC Directive 79/831 Annex V.A8
Format: physicochemical
Experimental: The stated logP values were determined in accordance with EEC Directive 79/831 Annex V.A8 by HPLC (high performance liquid chromatography) on a reversed-phase column (C 18). Temperature: 43° C.

[1] = method marker [b], isomer A / isomer B / isomer mixture as noted in the cell
[2] = method marker [a] (footnote not shown), isomer A / isomer B / isomer mixture as noted in the cell

## CC(=NOCC1(CON=C(C)c2cc(Cl)cc(C)n2)CC1)c1cc(Cl)cc(C)n1 [compound 805]
Value marked [a]
  logP: 7.02^[a)

## C=C(CON=C(C)c1cccc(C)n1)CON=C(N)c1nc(C)c(C)c(C)n1 [compound 191]
[1]
  logP: 2.13^[b]

## CC(=NOCCCON=C(C)c1cnc(-c2ccccc2)s1)c1cnc(-c2ccccc2)s1 [compound 49]
[1]
  logP: 7.07^[b]

## Cc1cccc(C(=NOCCCON=C(c2cccc(C)n2)C(C)C)C(C)C)n1 (single isomer, unassigned) [compound 89]
[2]
  logP: 4.45^[a] (isomer A)

## CCC(=NOCC(C)(C)CON=C(CC)c1cccc(C)n1)c1cccc(C)n1 [compound 883]
Value marked [b]
  logP: 6.81^[b]
Value marked [c]
  logP: 7.36^[c]

## CC(=NOCC(C)CON=C(C)c1cccc(CC(C)C)n1)c1cccc(CC(C)C)n1 (stereo not shown) [compound 172]
[2]
  logP: 7.36^[a]

## CC(=NOCC(C)(C)CON=C(c1ncccc1C)C(C)C)c1cccc(C)n1 [compound 368]
Value marked [b]
  logP: 4.56^[b]

## C=C(CON=C(C)c1ccc(C)cn1)CON=C(C)c1ccc(C)cn1 [compound 152]
[1]
  logP: 3.36^[b]

## CC(=NOCC1CCCCC1ON=C(C)c1cccc(C)n1)c1cccc(C)n1 (stereo not shown) [Compound 823]
Value marked [a]
  logP: 5.9^[a]

## CC(=NOCC(C)CON=C(C)c1ccc2c(n1)CCCC2)c1ccc2c(n1)CCCC2 (stereo not shown) [Compound 304]
Value marked [a]
  logP: 4.69^[a]

## C=C(CON=C(N)c1ccc(C)c(C)n1)CON=C(Cl)c1cccc(C)n1 [compound 831]
Value marked [a]
  logP: 4.06^[a]

## CCC(CC)(C(=O)ON=C(C)c1ccc(C)c(C)n1)C(=O)ON=C(C)c1ccc(C)c(C)n1 [compound 675]
Method marked [b] in Table 1
  logP: 5.06^[b]

## CC(=NOCC(CON=C(C)c1cccc(C)n1)C(C)C)c1cccc(C)n1 (stereo not shown) [Compound 680]
Method marked [b] in Table 1
  logP: 5.03^[b]
Method marked [c] in Table 1
  logP: 6.40^[c]

## CC(=NOC[Si](C)(CON=C(C)c1cc(C)cc(C)n1)C(C)C)c1cc(C)cc(C)n1 [Compound 836]
Value marked [a]
  logP: 5.04^[a]
Value marked [b]
  logP: 5.04^[b]
Value marked [c]
  logP: 7.36^[c]

## CC(=NOCC(C)(C)CON=C(C)c1cccc(C)n1)c1ccccc1 [compound 419]
Value marked [b]
  logP: 5.42^[b]

## CC(=NOCC(C)CON=C(C)c1ccc[nH]1)c1ccc[nH]1 (mixture of isomers) [compound 566]
Method marked [b] in Table 1
  logP: 3.47^[b]
Method marked [c] in Table 1
  logP: 3.62^[c]

## CC(=NOC(=O)N(C)C(=O)ON=C(C)c1ccc(C)c(C)n1)c1ccc(C)c(C)n1 [compound 674]
Method marked [b] in Table 1
  logP: 2.79^[b]

## COc1cc(O)nc(C(C)=NOCC(C)CON=C(C)c2nc(OC)cc(OC)n2)n1 (stereo not shown) [compound 271]
Value marked [b]
  logP: 3.05^[b]

## Cc1cccc(C(CC(C)C)=NOCCCON=C(CC(C)C)c2cccc(C)n2)n1 (single isomer, unassigned) [compound 114]
[2]
  logP: 5.92^[a] (isomer A)

## CC(=NOCCCON=C(C)c1cccc(CC(C)C)n1)c1cccc(CC(C)C)n1 [Compound 134]
[2]
  logP: 7.36^[a]

## COc1ccc(C(C)=NOCC(C)(C)CON=C(C)c2cccc(C)n2)cc1OC [compound 414]
Value marked [b]
  logP: 4.57^[b]

## CC(=NOCCC(C)ON=C(C)c1nc(C)ccc1C)c1nc(C)ccc1C (single isomer, unassigned) [compound 758]
Method marked [b] in Table 1
  logP: 2.13^[b]
Method marked [c] in Table 1
  logP: 4.03^[c]

## CC(=NOC/C=C\CON=C(C)c1cccc(C)n1)c1cccc(C)n1 [compound 778]
Value marked [b]
  logP: 3.31^[b]

## CCC1=NOC(CON=C(c2cccc(C)n2)C(C)C)(CON=C(c2cccc(C)n2)C(C)C)C1 (stereo not shown) [compound 595]
Method marked [a] in Table 1
  logP: 4.79^[a]

## Cc1nc(C(N)=NOC/C=C/CON=C(N)c2nc(C)c(Cl)c(C)n2)nc(C)c1Cl [compound 774]
Value marked [b]
  logP: 2.70^[b]

## CC(=NOCCCON=C(C)c1cc(C)cc(C)n1)c1cc(C)cc(C)n1 [Compound 224]
[2]
  logP: 1.65^[a]

## CCC1=NOC(CO/N=C(\C)c2cccc(C)n2)(CO/N=C(\C)c2cccc(C)n2)C1 [(1E,1′E)-1-(6-methylpyridin-2-yl)ethanone O,O′-[(3-ethyl-4,5-dihydroisoxazole-5,5-diyl)bis(methylene)]oxime]
reversed-phase HPLC column (C 18), HCO2H, HPLC reversed-phase column (C 18), 43° C., read-out: logP (HCO2H)
  chromatographic logP: 2.68

## CC(=NOCCCCCCON=C(C)c1ccc(Cl)s1)c1cccc(C)n1 [compound 459]
Value marked [b]
  logP: 6.16^[b]
